{
  "source": "patent US8569335B2",
  "about": "“Compounds derived from taurine, process of their preparation and pharmaceutical compositions containing these” (EMS S.A., priority 2008, dated 2013)",
  "key": {"Wistar rat paw's edema": {"system": "Wistar rat paw's edema", "test": "Wistar rat paw's edema induced by carragenin", "format": "in vivo", "settings": "oral; dosage of 44 mg/kg (example 2), 130 mg/Kg (example 3), 182 mg/Kg (example 1)", "description": "14, p. 2589-99, 2006); ÖZTÜRK, G. et al. (ÖZTÜRK, G. et al. “New analgesic and antiinflammatory agents 4(1H)-pyridinone derivatives”, Europe Journal Medicinal Chemistry, v. 37, n. 10 p. 829-34, 2002); LOLLI, et al. (LOLLI, et al. “A new class of ibuprofen derivatives with reduced gastrotoxicity”, Journal of Medicinal Chemistry, v. 44, p. 3463-68, 2001). Besides these, a paw's edema test was performed using taurine as control of its derived compounds, in the dosage of 10 mg/Kg according to HIRATA, T. et al. (HIRATA, T. et al. “Cyclo-oxygenase isozymes in mucosal ulcergenic and functional responses following barrier disruption in rat stomachs”, British Journal of Pharmacology, v. 122, p. 447-54, 1997).\nIn order to confirm the biological activity of the compounds of the present invention, tests were performed according to the pharmacological model of Wistar rat paw's edema using groups of six animals. It was verified that, in the reported concentrations, in the presence of equimolar dosages of the compounds described in the articles above-mentioned, such as referral drugs, a reduction of the inflammatory process with the use of the compounds of the invention was observed.\nThe compounds of the present invention were administered 1 (one) hour prior the inoculation of the irritant agent carragenin in the paws of the animals, with the aid of a gavage tube, orally, using water as solvent.\nThe control group had the irritant agent carragenin applied to the bottom of their posterior paws and, orally, saline solution. […] Other groups of animals had the taurine derived of the present invention (embodiments corresponding to Examples 1, 2 and 3, respectively—orally) administered 60 minutes prior to the carragenin (bottom of the paw).\nThe posterior paws were measured prior to the treatments and at each hour, for 6 hours after the carragenin was administered, using an thickness meter, in order to measure their volume (in mm). The results were expressed by the difference between the paw's measurement readings before and after the treatments."}, "Wistar female rats": {"system": "Wistar female rats", "settings": "for survival: dosage of 1,000 mg/Kg", "description": "Wistar female rats weighting between 200 and 250 g were used. […] To all studied groups, dosages of 1,000 and, alternatively, of 1,500 mg/kg were administered by gavage feeding.\nAfter fourteen (14) days of administration and observation regarding the toxicity signs of general kind, effects on motion, behavior, breathing, number of deaths and form of occurrence, the animals that have survived were subjected to euthanasia in CO2 and had their organs such as heart, lungs, kidney, liver and stomach removed and weighted. For the analysis of the results were also considered the body weights."}, "gastric mucous membrane": {"system": "gastric mucous membrane", "test": "Gastric ulcerogenesis (gastric ulcerogenesis index, G.U.I.)", "format": "in vivo", "settings": "for alterations / color of the gastric mucous membrane: same animals as paw's edema model; for lesion index (gastric ulcerogenesis index): stomach 6 hours after paw readings, macroscopic and microscopic (640x)", "description": "Gastric ulcerogenesis was verified in the same animals of the groups used for the model of paw's edema.\nAfter 6 hours of the paw's measurement readings, the animals were subjected to euthanasia in CO2, and had their stomach removed, cut open in the longitudinal axis and washed with saline solution. In all experiments, the groups were composed of 6 animals, being kept the desired therapeutic activity, with absence of gastric lesions, and after the LD50 assays, it was concluded that the taurine derived compounds of the present invention are safe. It is worth observing, still, that other organs, such as lungs and intestine, as well as the macroscopic integrity of the other organs were kept preserved.\nThrough mucous membrane exposition, it was observed its color and integrity. In the case of lesions existence, they were counted and measured, according to the gastric ulcerogenesis index (G.U.I.) that follows numeric criteria for classification of lesions of the gastric mucous membrane: (lesions<1 mm=1; […]; 2.5 to 3.5 mm=3; 3.5 to 4.5 mm=4 and >4.5 mm=5). The obtained results were reported as averages±E. P. M. The results of the lesion experiment regarding the administration of the compounds of the present invention (embodiments corresponding to the Examples 1, 2 and 3) were neither macroscopically nor microscopically (640×) observed, being reported as lesion index of 0 (zero) value."}, "[1]": {"settings": "oral administration; literature (Merck Index); cited from earlier work"}, "gastric ulceration": {"system": "gastric ulceration", "settings": "pre clinic tests; cited from earlier work"}, "iNOS": {"biological_target": "T1, iNOS (Homo sapiens, UniProt P35228)", "T1 construct": "The assay used the maximum production of nitric oxide (macrophages stimulated with LPS); endogenous in cells", "T1 sequence (P35228 whole entry, species assumed)": "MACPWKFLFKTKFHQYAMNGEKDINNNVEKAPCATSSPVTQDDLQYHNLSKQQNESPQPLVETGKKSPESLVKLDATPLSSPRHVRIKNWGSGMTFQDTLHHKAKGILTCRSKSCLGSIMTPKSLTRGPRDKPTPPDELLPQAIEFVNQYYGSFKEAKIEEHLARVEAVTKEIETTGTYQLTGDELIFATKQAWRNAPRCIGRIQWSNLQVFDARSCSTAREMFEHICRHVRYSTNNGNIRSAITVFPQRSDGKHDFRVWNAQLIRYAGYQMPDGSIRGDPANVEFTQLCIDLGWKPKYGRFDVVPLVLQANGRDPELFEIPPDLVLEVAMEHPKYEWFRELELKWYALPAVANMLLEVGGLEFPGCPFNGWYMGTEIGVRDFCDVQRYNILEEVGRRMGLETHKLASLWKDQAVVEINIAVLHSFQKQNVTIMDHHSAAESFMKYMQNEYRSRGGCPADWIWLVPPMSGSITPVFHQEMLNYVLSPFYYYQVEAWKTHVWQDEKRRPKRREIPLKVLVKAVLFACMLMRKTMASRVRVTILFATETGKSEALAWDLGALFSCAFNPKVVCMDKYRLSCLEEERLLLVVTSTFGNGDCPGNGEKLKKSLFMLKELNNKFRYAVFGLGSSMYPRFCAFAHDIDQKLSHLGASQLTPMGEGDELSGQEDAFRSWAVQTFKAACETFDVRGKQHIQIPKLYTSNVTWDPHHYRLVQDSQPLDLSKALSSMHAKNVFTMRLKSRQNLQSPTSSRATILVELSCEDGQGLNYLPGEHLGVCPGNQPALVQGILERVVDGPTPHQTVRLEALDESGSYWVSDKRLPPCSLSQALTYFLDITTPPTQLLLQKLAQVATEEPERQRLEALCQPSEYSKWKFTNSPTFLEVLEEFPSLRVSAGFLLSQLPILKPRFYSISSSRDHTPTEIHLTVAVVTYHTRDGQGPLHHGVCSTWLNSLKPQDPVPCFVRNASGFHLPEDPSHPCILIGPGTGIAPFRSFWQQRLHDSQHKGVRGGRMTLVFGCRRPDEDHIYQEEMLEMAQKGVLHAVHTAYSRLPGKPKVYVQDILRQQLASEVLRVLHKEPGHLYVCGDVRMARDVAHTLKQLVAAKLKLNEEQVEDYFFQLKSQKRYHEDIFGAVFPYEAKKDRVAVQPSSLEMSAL", "test": "nitric oxide production by macrophages stimulated with LPS, indirect nitrite (NO2-) detection", "format": "cell-based", "settings": "24 hours"}, "[2]": {"system": "isolated gastric mucosal cells", "settings": "cited from earlier work"}, "gastric mucosal injury": {"system": "gastric mucosal injury", "settings": "rats pre-treated intragastrically with 250 or 500 mg/kg 1 to 3 days before 25 mg/kg indometacin; cited from earlier work"}},
  "note": "Like-named read-outs stand apart in the source and are kept apart here.",
  "data": [
    {"smiles": "CC(C)Cc1ccc(C(C)C(=O)NCCS(=O)(=O)[O-])cc1.[Na+]", "note": "(stereo not shown) [Compound 27, [2-(4-isobuthylphenyl)propanoyl]amide ethanesulfonic acid]", "values": [
      {"measurement": "anti inflammatory activity in paw's edema", "setting": "Wistar rat paw's edema", "result": "anti inflammatory activity"},
      {"measurement": "deaths", "setting": "Wistar female rats; any of the tested dosages (1,000 and 1,500 mg/kg), gavage", "result": "no death in any of the tested dosages"},
      {"measurement": "alterations / color of the gastric mucous membrane", "setting": "gastric mucous membrane", "result": "did not present any color alteration in the mucous membrane"},
      {"measurement": "alterations / color of the gastric mucous membrane", "setting": "gastric mucous membrane; listed as Example 1", "result": "not observed alterations in the mucous membrane"},
      {"measurement": "lesion index (gastric ulcerogenesis index)", "setting": "gastric mucous membrane", "result": 0},
      {"measurement": "LD50", "setting": "[1]", "result": "1,050 mg/Kg"}
    ]},
    {"smiles": "COc1ccc2cc(C(C)C(=O)NCCS(=O)(=O)[O-])ccc2c1.[Na+]", "note": "(stereo not shown) [Compound 63, 2-{[2-(6-methoxy-2-naphthyl)propanoyl]amide}ethanesulfonic acid]", "values": [
      {"measurement": "anti inflammatory activity in paw's edema", "setting": "Wistar rat paw's edema", "result": "anti inflammatory activity"},
      {"measurement": "survival", "setting": "Wistar female rats; gavage", "result": "all animals survived"},
      {"measurement": "deaths", "setting": "Wistar female rats; dosage of 1,500 mg/Kg, gavage", "result": 17, "unit": "%"},
      {"measurement": "alterations / color of the gastric mucous membrane", "setting": "gastric mucous membrane", "result": "not observed alterations in the mucous membrane"},
      {"measurement": "lesion index (gastric ulcerogenesis index)", "setting": "gastric mucous membrane", "result": 0},
      {"measurement": "LD50", "setting": "[1]", "result": "1,234 mg/Kg"}
    ]},
    {"smiles": "COc1ccc2c(c1)c(CC(=O)NCCS(=O)(=O)[O-])c(C)n2C(=O)c1ccc(Cl)cc1.[Na+]", "note": "[Compound 64]", "values": [
      {"measurement": "anti inflammatory activity in paw's edema", "setting": "Wistar rat paw's edema", "result": "anti inflammatory activity"},
      {"measurement": "weight of the organs (kidney, heart and liver) versus control animals", "setting": "Wistar female rats; after the toxicity assay, 14 days", "result": "substantially close of those obtained with the control animals"},
      {"measurement": "survival", "setting": "Wistar female rats; gavage", "result": "no animal has died"},
      {"measurement": "population survived", "setting": "Wistar female rats; dosage of 1,500 mg/Kg, gavage", "result": 66, "unit": "%"},
      {"measurement": "alterations / color of the gastric mucous membrane", "setting": "gastric mucous membrane", "result": "not observed alterations in the mucous membrane"},
      {"measurement": "lesion index (gastric ulcerogenesis index)", "setting": "gastric mucous membrane", "result": 0}
    ]},
    {"smiles": "COC(=O)[C@@H](N)CCCNC(=N)N[N+](=O)[O-]", "note": "[L-NAME, N^G-nitro-L-arginine methyl esther]", "values": [
      {"measurement": "change in gastric acidity", "setting": "gastric ulceration", "result": "does not affect gastric acidity"},
      {"measurement": "lesion rate", "setting": "gastric ulceration", "result": "doubles"},
      {"measurement": "reduction of nitric oxide (measured as nitrite)", "setting": "gastric ulceration", "result": 50, "unit": "%"}
    ]},
    {"smiles": "N=C(N)NN", "note": "[aminoguanidine]", "values": [
      {"measurement": "inhibition of nitric oxide production (NOS inhibition activity)", "setting": "iNOS", "result": "total inhibition of nitric oxide production"}
    ]},
    {"smiles": "CC(C)Cc1ccc(C(C)C(=O)O)cc1", "note": "(stereo not shown) [ibuprophen, reference compound]", "values": [
      {"measurement": "alterations / color of the gastric mucous membrane", "setting": "gastric mucous membrane", "result": "color alteration of the mucous membrane"}
    ]},
    {"smiles": "NCCS(=O)(=O)O", "note": "[taurine, 2-aminoethanesulfonic acid]", "values": [
      {"measurement": "increase of cellular resistance", "setting": "[2]", "result": 21, "unit": "%"},
      {"measurement": "hemorrhagic gastric lesion", "setting": "gastric mucosal injury", "result": "lesion reduction"}
    ]}
  ]
}
